Laboratory results reported in patent publication US20150353626A1, “APOLIPOPROTEIN A-I DERIVED PEPTIDES FOR TREATMENT OF HYPERGLYCAEMIA” (priority 2013, published 2015).

Experiments:
Akt = assay: Western blot for phosphorylated Akt in L6 myotube lysates; format: cell-based; details: L6 myotubes, 60 minutes
Procedure: Prior to stimulation or treatment cultured myoblast cells were serum starved for 4 hours in serum-free α-MEM and all subsequent treatments, including insulin or phenformin as positive controls (Sigma), were performed in serum free a-MEM. After treatments, cells were washed with ice cold PBS buffer and lysed on ice using a non-denaturing lysis buffer (1% Triton X-100, 50 mmol/l Tris, 150 mmol/l NaCl, pH 8.0) containing protease and phosphatase inhibitors (Roche). Lysates were centrifuged at 16,000×g, 20 minutes at 4° C. and BCA protein assay (Pierce) was performed on supernatants. Equal protein amounts were separated by SDS-PAGE and transferred to nitrocellulose membranes. pAMPK, AMPK, pACC, pAkt, Akt and tubulin were used for immunodetection with IRDye 800CW and 680RD secondary antibodies (LI-COR). Blots were imaged using the Odyssey Fc system and quantified using Image studio v2.0 software.
To dissect the effect of discoidal rHDL on a non-insulin dependent signaling pathway, we conducted western blotting using lysates from L6 myotubes incubated with rHDL. […] Phenformin was used as a positive control, inducing a 1.98±0.33-fold (p=≦0.05) and 2.7±0.74-fold (p=≦0.05) elevation of phosphorylated AMPK and ACC, respectively, at a concentration of 0.4 mmol/l. […] For clarity 1 nmol/l insulin (n=2) and 100 nmol/l insulin (n=3) (51±12.5-fold; p=≦0.01) was plotted in FIG. 3e. Representative immunoblots of those quantified for FIGS. 3a, c and f are given in FIGS. 3b, d and e, respectively.
The effect of the peptide fragment 190-243 of human Apo A-I (SEQ ID NO: 1) on a non-insulin dependent signaling pathway, was tested using lysates from L6 myotubes as described above for rHDL. Myotubes were serum starved for 4 hours then treated for 60 minutes with 2, 10 or 20 μmol/l of 190-243 peptide, 1 mmol/l phenformin, 100 nmol/l insulin, or control (C) followed by western blot analysis for phosphorylated AMPK (AMP-activated protein kinase) or phosphorylated Akt. Tubulin was used as loading control. Blots shown are representative of three independent experiments.

L6 myotubes = assay: Glucose uptake in L6 myotubes (2-[3H]-deoxy-D-glucose); format: cell-based
Procedure: L6 myoblasts (ATCC #CRL-1458) were grown in α-MEM (Invitrogen) supplemented with 10% FBS (Sigma) and 1% antibiotic/antimycotic (Penicillin, streptomycin, amphotericin B; Invitrogen). Differentiation to myotubes was achieved by switching from growth media to 2% FBS a-MEM for 6-7 or 6-12 days. Cells were maintained at 37° C. and 5% CO2.
Prior to stimulation (or treatment) cells were starved for 2 hours in serum-free a-MEM and all subsequent treatments, which were performed in triplicate and included cytochalasin B (Sigma) as a measure of cell associated non-specific radioactivity, were performed in uptake buffer (140 mmol/l NaCl, 20 mmol/l HEPES, 5 mmol/l KCl, 2.5 mmol/l MgSO4, 1 mmol/l CaCl2, pH 7.4). After stimulation, treatments were replaced with 10 μmol/l 2-deoxy-D-glucose (Sigma), 10 μmol/l 2-[3H]-deoxy-D-glucose (Perkin Elmer) in uptake buffer for 15 mins at room temperature. Cells were then washed twice with ice cold PBS and lysed with 1 mol/l NaOH on ice. Lysates were collected and radioactivity quantified by scintillation counting.
In order to investigate the effect of discodial HDL (rHDL) on GLUT4 translocation and glucose uptake, we produced recombinant human apoA-I and reconstituted HDL needed for cell incubations. L6 myotubes were incubated with 50 μg/ml (1.6 μmol/l) apoA-I for 1 hour followed by a glucose uptake assay as described above. […] Next, L6 myotubes were treated by incubation with 50 μg/ml discodial rHDL (expressed as total concentration of apoA-I in rHDL, given 2 apoA-I molecules per particle) for 1 hour. […] This experiment was thereafter repeated in more controlled manner including cell number and quality (cells were similarly treated during differentiation from myoblasts to multinuclear myotubes, with respect to the time between splitting cells, cell density, passage of cells used.) (FIG. 7c).
The relative effect of specific regions of apoA-I to increase glucose uptake was investigated using truncated protein fragments corresponding to residues 1-189 (N-terminal/central domain), 44-189 (central domain), 44-243 (central/C-terminal domain) and 190-243 (C-terminal domain) of full-length apoA-I (FIG. 4a). The treatments with incubation of truncated protein fragments were performed as described above for treatment of L6 myotubes with full-length apoA-I and followed by a glucose uptake assay as described above.
To test for the contribution of the constituent phospholipid to rHDL-induced glucose uptake in L6 myotubes, rHDL made with DMPC was also produced and compared to 100 nm DMPC vesicles containing no apoA-I protein. Stable 100 nm diameter vesicles can be synthesized with DMPC in the absence of apoA-I and was therefore used as a phospholipid control. The effect on the glucose uptake was tested as described above. […] To also test for the contribution of the constituent POPC phospholipid to rHDL-induced glucose uptake, rHDL made with POPC was compared with 100 nm POPC vesicles containing no apoA-I protein.

Substance: 190-243 polypeptide fragment: polypeptide fragment consisting of amino acids 190-243 of the full-length human apoA-I protein, C-terminal domain, 54-mer, recombinant (AEYHAKATEHLSTLSEKAKPALEDLRQGLLPVLESFKVSFLSALEEYTKKLNTQ; listed as Homo Sapiens)
- Akt phosphorylation (in words) (Akt; 2, 10 or 20 μmol/l 190-243 peptide, FIG. 8c): unaffected
- glucose uptake, fold change versus control (L6 myotubes; apoA-I fragment, 60 minutes, FIGS. 4b and 8b): 1.77±0.23 fold

Substance: insulin
- Akt phosphorylation (Akt; insulin 100 nmol/l): 51±12.5 fold
- Akt phosphorylation (Akt; rHDL 700 μg/ml apoA-I, insulin 1 nmol/l, ± S.D.): 2.06±0.47 fold
- glucose uptake over basal/Control, repeated experiment (L6 myotubes; 2 μmol/l (60 μg/ml) POPC rHDL or 100 nmol/l insulin, 60 minutes, FIG. 7c): 2.4±1.0 fold
- glucose uptake over basal (L6 myotubes; 50 μg/ml rHDL (as apoA-I) or 100 nmol/l insulin, 1 hour, FIG. 1c, rHDL p=0.095): 2.4±1.0 fold
- increased glucose uptake (L6 myotubes; 2 h serum starved, 50 μg/ml (1.6 μmol/l) apoA-I or 100 nmol/l insulin, 1 hour, FIG. 1b): 2 fold
